Results on 20 compounds are retold here after patent publication US20260000642A1 (Tay Therapeutics Limited, priority 2022, published 2026).

Each structure is given as a SMILES string.

Series [1] in a line: Sprague-Dawley rat pharmacokinetics (IV and PO). In kind it is in vivo. The conditions noted are these: male Sprague-Dawley rats, cassette mode, Method 1; for IV T1/2: IV 1 mg/kg; for PO F (%) / bioavailability: PO 5 mg/kg (IV 1 mg/kg); for bioavailability: rat, plasma, read-out: PO F (%). The text has this:
BET protein inhibitors with a long half-life and good oral bioavailability in in vivo DMPK parameters are promising oral drug candidates. Some of the exemplary compounds of the current disclosure have a long half-life and good oral bioavailability in in vivo DMPK parameters in the Sprague-Dawley rat following intravenous (IV) and oral (PO) dosing. The experimental methods and results (Table 5) are provided hereinafter.
Sprague-Dawley Rat Pharmacokinetics, Method 1
Compounds were formulated in 5% DMSO, 40% PEG-400, 55% Milli-Q water at a concentration of 0.2 mg/mL for IV and at 0.5 mg/mL for PO. Two male Sprague-Dawley rats per arm were dosed with up to 5 compounds in cassette mode, which each compound being dosed at 1 mg/kg IV and 5 mg/kg PO. Blood was sampled at various timepoints and plasma isolated. 50 μL of plasma with 5 μL of blank Sprague-Dawley rat plasma were added to 200 μL of acetonitrile containing IS mixture. The samples were vortexed for 30 s. After centrifugation at 4 degrees Celsius, 3900 rpm for 15 min, the supernatant was diluted 3 times with water. 20 μL of diluted supernatant was injected into the LC/MS/MS system for quantitative analysis and concentration of analyte determined by comparison with matrix matched standard curve. WinNonlin (Phoenix™, version 8.3) or other similar software may be used for pharmacokinetic calculations.

Series [2] is described as follows: Plasma stability assay, rat plasma. Format: in vitro ADME. The following applies: 37° C., Method 2 (10 μM). Here is the method:
Exemplary compounds of the disclosure are stable upon incubation in mouse plasma. Stability is expressed as a % remaining after 120 minutes. The experimental methods and results (Table 2) are provided hereinafter.
Plasma Stability Assay, Method 1
From stock solution of compound in 10 mM DMSO, a working solution of 1 mM is prepared by diluting the compound in DMSO. To 398 μL of plasma pre-warmed at 37° C. for 15 minutes), 2 μL of working solution of compound is added, resulting in a final concentration of 5 μM (0.5% DMSO) for the compound. The sample is then incubated at 37° C. Aliquot is withdrawn at specified time-points (0, 15, 30, 60 and 120 mins). The reaction is stopped by addition of 450 μL cold acetonitrile containing internal standard (IS). […] Aliquots of the supernatant is analysed using LC-MS/MS. The percent remaining of the compound at each time point is calculated with respect to the control sample (0 min time-point).
Plasma Stability Assay, Method 2
A working solution of compound (500 μM) is prepared in DMSO (100%). To 735 μL of plasma, 15 μL of working solution of compound is added—resulting in a final concentration of 10 μM (2% DMSO) for the compound. The sample is then incubated at 37° C. Aliquot is withdrawn at time-points—0, 15, 30, 60, 90 and 120 mins. The reaction is stopped by using chilled acetonitrile containing internal standard (IS). The samples are centrifuged and the supernatants analyzed using LC-MS/MS. The percent remaining of the compound at each time point is calculated with respect to the control sample (0 min time-point).

The subject of series [3] is collagen-induced arthritis in Lewis rats. The series is described as follows: Collagen-induced arthritis (CIA) model in rats: body weight, paw volume, clinical scores, clinical observations. As to Detailed Clinical Scores, left forelimb: key of the grades not given here. As to Detailed Clinical Scores, left hind limb: key of the grades not given here. As to Detailed Clinical Scores, right forelimb: key of the grades not given here. As to Detailed Clinical Scores, right hind limb: key of the grades not given here. As to Detailed Clinical Scores, score: key of the grades not given here. The conditions noted are these: for animals showing signs of disease (of 8): CIA rats, daily P.O.
Series [4] shares this test system. Description: CIA model: histopathologic analysis of H&E-stained hind limbs. In kind it is in vivo, Lewis rat. The conditions noted are these: CIA rats.
Source text: Hind limbs were collected following euthanasia, with the left limb being used for H&E staining.
H&E-stained slides of designated tissues from animals were transferred to an independent pathologist for microscopic evaluation (SPFBio). Samples were assigned the histologic grades based on the severity of change from tissue where CIA was not induced. Histology grades assigned were as follows: grade 1 (minimal change), grade 2 (mild change), grade 3 (moderate change), grade 4 (marked change), and grade 5 (severe change).
Moderate inflammation was also associated with increased edema fluid, fibrin, and cellular debris. Marked mixed cell inflammation was characterized by dense, widespread accumulations of neutrophils and macrophages with lesser number of lymphocytes within one or more joint spaces, synovium and periarticular soft tissues. Marked inflammation was also associated with abundant edema fluid, fibrin, and cellular debris.
Marked granulation tissue (pannus) was associated with inflammation and was characterized by widespread fibrovascular connective tissue that expanded/replaced the periarticular soft tissues of one or more joints, extended into/expanded joint spaces, was contiguous with areas of erosion/ulcer in articular cartilage and/or increased eroded surface of bone, and variably extended along the diaphysis.
Instances of minimal increased eroded surface were not associated with fragments of bone contiguous and/or surrounded by granulation tissue. […] In some areas, increased eroded surfaces were contiguous with areas of erosion/ulcer in the articular cartilages. Instance of marked increased eroded surface were often associated with fragments of bone contiguous with and/or surrounded by granulation tissue.
This observation was typically most pronounced at joint margins (transition zone). The ulceration was often associated with inflammation and granulation tissue extending through the defect to the subchondral bone.
Marked increased periosteal bone (periosteal bone formation) was characterized by extensive areas of increased bone matrix and numerous prominent osteoblasts lining trabecular surfaces along the metaphysis and/or diaphysis of one or more bones. In some areas, increased periosteal bone was contiguous with increased eroded surface and/or erosion/ulcer at articular cartilage.

`CCNC(=O)c1cc(OC(C)c2ccc(Cl)cc2)c(C(=O)NC)[nH]1` (single isomer, unassigned) [Example 18, 3-(1-(4-chlorophenyl)ethoxy)-N^5-ethyl-N^2-methyl-1H-pyrrole-2,5-dicarboxamide]: in series [1], the “IV T1/2” value is 66 min and the “PO F (%)” value is on record as 30%.
As to `CCNC(=O)c1cc(OC(C)c2ccccc2F)c(C(=O)NC)[nH]1` (single isomer, unassigned) [Example 20, N^5-ethyl-3-(1-(2-fluorophenyl)ethoxy)-N^2-methyl-1H-pyrrole-2,5-dicarboxamide], in series [1], the “IV T1/2” value was 24 min and the “PO F (%)” value was 46%.
As for `CNC(=O)c1[nH]c(C(=O)NC2CCC2)cc1OC(C)c1ccc(Cl)cc1` (single isomer, unassigned) [Example 27, 3-(1-(4-chlorophenyl)ethoxy)-N^5-cyclobutyl-N^2-methyl-1H-pyrrole-2,5-dicarboxamide], in series [2], the “Plasma Stability (% remaining at 120 minutes) Rat” value was determined as 47%. For the same compound, in series [1], the “IV T1/2” value turned out to be 24 min and the “PO F (%)” value is 47%.
As to `CNC(=O)c1[nH]c(C(=O)NC2CCC2)cc1OC(C)c1ccc(Cl)cn1` (single isomer, unassigned) [Example 33, 3-(1-(5-chloropyridin-2-yl)ethoxy)-N^5-cyclobutyl-N^2-methyl-1H-pyrrole-2,5-dicarboxamide], the “Plasma Stability (% remaining at 120 minutes) Rat” value in series [2] worked out at 85%.
For the compound `CNC(=O)c1[nH]c(C(=O)NC2CCC2)cc1OC(C)c1ccc(Cl)cc1F` (single isomer, unassigned) [Example 35], in series [2], the “Plasma Stability (% remaining at 120 minutes) Rat” value amounted to 67%. In series [1], the “IV T1/2” value worked out at 30 min and the “PO F (%)” value came out at 65%.
For the compound `CNC(=O)c1[nH]c(C(=O)N[C@H]2CC[C@H](O)CC2)cc1OC(C)c1ccc(Cl)cc1F` (single isomer, unassigned) [Example 38, 3-(1-(4-chloro-2-fluorophenyl)ethoxy)-N^5-(trans-4-hydroxycyclohexyl)-N^2-methyl-1H-pyrrole-2,5-dicarboxamide], in series [1], the “IV T1/2” value was 84 min and the “PO F (%)” value is given as 66%.
In the case of `CCNC(=O)c1cc(OC(C)c2ccc(Cl)cc2F)c(C(=O)NC)[nH]1` (single isomer, unassigned) [Example 41, 3-(1-(4-chloro-2-fluorophenyl)ethoxy)-N^5-ethyl-N^2-methyl-1H-pyrrole-2,5-dicarboxamide], in series [1], the “IV T1/2” value came to 18 min and the “PO F (%)” value worked out at 69%.
With `CNC(=O)c1[nH]c(C(=O)NC2CCC2)cc1OC(C)c1ccccc1F` (single isomer, unassigned) [Example 43, N^5-cyclobutyl-3-(1-(2-fluorophenyl)ethoxy)-N^2-methyl-1H-pyrrole-2,5-dicarboxamide], the “Plasma Stability (% remaining at 120 minutes) Rat” value in series [2] came out at 20%. Also, in series [1], the “IV T1/2” value turned out to be 30 min and the “PO F (%)” value turned out to be 58%.
Turning to `CCNC(=O)c1cc(OC(C)c2ccc(Br)cc2)c(C(=O)NC)[nH]1` (single isomer, unassigned) [Example 49, 3-(1-(4-bromophenyl)ethoxy)-N^5-ethyl-N^2-methyl-1H-pyrrole-2,5-dicarboxamide], the “Plasma Stability (% remaining at 120 minutes) Rat” value in series [2] was found to be 90%.
Consider `CCNC(=O)c1cc(OC(C)c2ccc(I)cc2)c(C(=O)NC)[nH]1` (single isomer, unassigned) [Example 51, N^5-ethyl-3-(1-(4-iodophenyl)ethoxy)-N^2-methyl-1H-pyrrole-2,5-dicarboxamide], for which the “Plasma Stability (% remaining at 120 minutes) Rat” value in series [2] stood at 93%.
Take `C#Cc1ccc(C(C)Oc2cc(C(=O)NCC)[nH]c2C(=O)NC)cc1` (single isomer, unassigned) [Example 70, N^5-ethyl-3-(1-(4-ethynylphenyl)ethoxy)-N^2-methyl-1H-pyrrole-2,5-dicarboxamide]: the “Plasma Stability (% remaining at 120 minutes) Rat” value in series [2] worked out at 92%. In addition, in series [1], the bioavailability is 44%.
Regarding `CNC(=O)c1[nH]c(C(=O)N[C@H]2CC[C@H](O)CC2)cc1OC(C)c1ccccc1` (single isomer, unassigned) [Example 98, N^5-(trans-4-hydroxycyclohexyl)-N^2-methyl-3-(1-phenylethoxy)-1H-pyrrole-2,5-dicarboxamide], the bioavailability in series [1] worked out at 31%.
On the same count and under the same terms, with `CNC(=O)c1[nH]c(C(=O)NC2CCC2)cc1OC(C)c1ccccc1` (single isomer, unassigned) [Example 102, N^5-cyclobutyl-N^2-methyl-3-(1-phenylethoxy)-1H-pyrrole-2,5-dicarboxamide] the figure was 13%.
On to `CCNC(=O)c1cc(OC(c2ccccc2)c2ccccc2)c(C(=O)NC)[nH]1` [Example 53, 3-(benzhydryloxy)-N^5-ethyl-N^2-methyl-1H-pyrrole-2,5-dicarboxamide], for which the “Plasma Stability (% remaining at 120 minutes) Rat” value in series [2] came to 91%.
For `CNC(=O)c1[nH]c(C(=O)NCC(F)(F)F)cc1O[C@@H](C)c1ccccc1` [Example 54], the “Plasma Stability (% remaining at 120 minutes) Rat” value in series [2] came to 93%.
On to `CNC(=O)c1[nH]c(C(=O)NC(C)C)cc1O[C@@H](C)c1ccc(Cl)cc1` [Example 61, (S)-3-(1-(4-chlorophenyl)ethoxy)-N^5-isopropyl-N^2-methyl-1H-pyrrole-2,5-dicarboxamide], for which the “Plasma Stability (% remaining at 120 minutes) Rat” value in series [2] was 81%.
Turning to `CNC(=O)c1[nH]c(-c2ncc(C)[nH]2)cc1O[C@@H](C)c1ccccc1F` [Example 68, (S)-3-(1-(2-fluorophenyl)ethoxy)-N-methyl-5-(5-methyl-1H-imidazol-2-yl)-1H-pyrrole-2-carboxamide], the “Plasma Stability (% remaining at 120 minutes) Rat” value in series [2] was determined as 75%.
Same read-out and setting: next, `CNC(=O)c1[nH]c(-c2ncc(C)[nH]2)cc1O[C@@H](C)c1ccc(Cl)cc1` [Example 69, (S)-3-(1-(4-chlorophenyl)ethoxy)-N-methyl-5-(5-methyl-1H-imidazol-2-yl)-1H-pyrrole-2-carboxamide]: 83%.
On the same count and under the same terms, with `CCNC(=O)c1[nH]c(C(=O)NC)c(O[C@@H](C)c2ccccc2F)c1Br` [Example 72, (S)-3-bromo-N^2-ethyl-4-(1-(2-fluorophenyl)ethoxy)-N^5-methyl-1H-pyrrole-2,5-dicarboxamide] the figure was 9%.
As to `CNC(=O)c1cc(C(=O)NC2CC2)cn(Cc2ccccc2)c1=O` [GSK620], the “animals showing signs of disease (of 8)” value in series [3] (day 12) is listed as “No animals”. Further, the “animals showing signs of disease (of 8)” value in series [3] (day 13) is 1/8. Also, the “animals showing signs of disease (of 8)” value in series [3] (day 14) is 5/8. The “animals showing signs of disease (of 8)” value in series [3] (day 15) is 7/8. In addition, in series [3] (day 18), the “animals showing signs of disease (of 8)” value is listed as “all animals”. In addition, in series [3] (Day 0, CIA, per animal ID), the “Detailed Clinical Scores, left forelimb” value is 0; the “Detailed Clinical Scores, left hind limb” value amounted to 0; the “Detailed Clinical Scores, right forelimb” value came to 0; the “Detailed Clinical Scores, right hind limb” value worked out at 0. In addition, in series [3] (Day 0, CIA, per animal ID), the “Detailed Clinical Scores, score” value is reported as 0. In series [3] (Day 6, CIA, per animal ID), the “Detailed Clinical Scores, left forelimb” value amounted to 0 and the “Detailed Clinical Scores, right forelimb” value turned out to be 0. In addition, in series [3] (Day 12, CIA, per animal ID), the “Detailed Clinical Scores, left forelimb” value is on record as 0 and the “Detailed Clinical Scores, right forelimb” value worked out at 0. Moreover, in series [4] (daily P.O. (Group 4)), the “erosion/ulcer in the articular cartilage” value is recorded as “mild to moderate”, the “granulation tissue (pannus)” value is “mild to moderate”, the “increased eroded surface of bone (bone resorption)” value is given as “minimal to moderate” and the “increased periosteal bone (periosteal bone formation)” value is listed as “mild to moderate”. The mixed cell inflammation entry in series [4] (daily P.O. (Group 4)) is given as “moderate”. Further, in series [4] (daily P.O. for 21 days), the “pathologic observations after microscopic evaluation (overall)” value is recorded as “at a lower level relative to samples from animals in the CIA-induced group”.
